Several values for one entry are separate records, joined by “and”; a condition that tells them apart may be missing. Equal values may be shown once.
System: HEK293 cells
Assay: CXCL8 expression in HEK-control cells (qRT-PCR)
Assay type: cell-based, human
Conditions: 5 h, Fig 2b
Method: Fig. 2 Induction of chemokine (C-X-C motif) ligand 8/macrophage inflammatory protein-2 (CXCL8/MIP-2) by lugdunin is TLR2/MyD88-dependent. a HEK-control or HEK-TLR2 cells were treated with 2 μM lugdunin for 5 h and subsequently the CXCL8 concentration in the supernatant was analyzed by LEGENDplex^TM (BioLegend). Shown is one representative experiment of three independent experiments with two technical replicates ± s.e.m. b HEK-control or HEK-TLR2 cells were treated with increasing concentrations of lugdunin for 5 h and subsequently expression of CXCL8 was analyzed and normalized to actin. Shown is one representative experiment of three independent experiments with two technical replicates ± s.e.m. c Schematic overview of the mouse experiments: 6–8-week-old female C5BL/6 WT, MyD88-knockout (ko), or 5xTLR-ko mice were epicutaneously treated with 1.5 µg lugdunin or phosphate-buffered saline (PBS) as a control. After 24 h, mice were euthanized, 4 mm skin punches were taken, and further cultured in vitro for 10 h followed by cytokine analysis of the culture supernatant by LEGENDplex^TM (BioLegend). d, e Shown are the mean concentrations of IL-1α (d) or MIP-2 (e) in the skin culture supernatant of two skin punches from four mice each ± s.e.m. Significant differences to control treatments were analyzed by an unpaired two-tailed t test (*P < 0.05; **P < 0.01; ***P < 0.001). f Representative MIP-2-stained paraffin-embedded mouse skin sections. Scale bar, 100 µM. Source data are provided as a Source Data file
Quantitative reverse transcription-polymerase chain reaction (qRT-PCR) was performed in 10 µL reaction volume with SYBR^TM Green PCR Master Mix (Thermo Fisher) according to the manufacturer’s instructions using a LightCycler 96 (Roche Life Science). The initial denaturation step was at 95 °C for 5 min, followed by 40 cycles with 10 s each for the denaturation step at 95 °C, the annealing at individual temperature, and the elongation at 72 °C. Primer sequences and respective annealing temperatures are listed in Supplementary Table 1. […]

**Q.** Which “CXCL8 expression normalized to actin” value (lugdunin 0.5 µM, medium = 1, two technical replicates) does the source give for Lugdunin here?
**A.** 1.3 and 1.16

**Q.** And the “CXCL8 expression normalized to actin” value (lugdunin 1 µM, two technical replicates)?
**A.** 1.15 and 1.02

**Q.** And the “CXCL8 expression normalized to actin” value (lugdunin 2 µM, two technical replicates)?
**A.** 2.66 and 2.46

**Q.** And the “CXCL8 expression normalized to actin” value (lugdunin 3 µM, two technical replicates)?
**A.** 1.96 and 1.97

**Q.** What about the “CXCL8 expression normalized to actin” value (lugdunin 5 µM, two technical replicates) of the same substance?
**A.** 2.91 and 2.73

**Q.** What about the “CXCL8 expression normalized to actin” value (lugdunin 10 µM, two technical replicates) of the same substance?
**A.** 1.84 and 1.91

Source: publication PMC6588697, “Lugdunin amplifies innate immune responses in the skin in synergy with host- and microbiota-derived factors” (Nature Communications, 2019)
